Experimental findings from US12338256B2, “Aza-tetracyclic oxazepine compounds and uses thereof” (Genentech, Inc., priority 2022, dated 2025) are described below.

Assay [1] concerns H1975 (KRAS wild type human lung adenocarcinoma cell line). The assay is described as follows: KRAS 3D-Cell Proliferation Assay, H1975 (Example 503). In kind it is cell-based. The note with it: Homo sapiens, NCI-H1975, 168 h, H1975 3D culture, 7 days, CellTiter-Glo 3D; read-out: Prolif H1975 3D ATP IC50. Put shortly: (§1)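 IC50 values derive from 4-parameter Hill fits of normalized luminescence, where DMSO sets 0% and 1 μM staurosporine 100% inhibition. 3D cultures in RPMI-1640 with 10% fetal bovine serum were exposed to compound for 7 days before CellTiter-Glo 3D lysis.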
(ATP-based viability assays read luminescence as a measure of living cells.)

Assay [2] has as its system HPAC (homozygous mutant KRAS G12D human pancreatic cell line). The assay is described as follows: KRAS 3D-Cell Proliferation Assay, HPAC (Example 503). The format is cell-based. The note with it: Homo sapiens, HPAC, 168 h, HPAC 3D culture, 7 days, CellTiter-Glo 3D; read-out: Prolif HPAC 3D ATP IC50. The method, boiled down: as §1

As usually defined, the IC50 is the concentration at which inhibition is half-maximal. Regarding `Cc1c(F)c(N)cc(-c2nc3c4c(nc(OC[C@@H]5CC[C@H]6COCCN65)nc4c2F)N2C[C@H]4CC[C@H](N4)[C@H]2[C@H](C)O3)c1CC(F)(F)F` [Compound 113, 2-fluoro-5-((5S,5aS,6S,9R)-1-fluoro-12-(((6S,8aS)-hexahydro-1H-pyrrolo[2,1-c][1,4]oxazin-6-yl)methoxy)-5-methyl-5a,6,7,8,9,10-hexahydro-5H-4-oxa-3,10a,11,13,14-pentaaza-6,9-methanonaphtho[1,8-ab]heptalen-2-yl)-3-methyl-4-(2,2,2-trifluoroethyl)aniline], the values for the IC50 in assay [1] and in assay [2] were 1.17 µM and 0.00291 µM, respectively.

With `C#Cc1c(F)ccc2cc(N)cc(-c3nc4c5c(nc(OC[C@]67CCN6CC(F)(F)C7)nc5c3F)N3C[C@H]5CC[C@H](N5)[C@H]3[C@H](C)O4)c12` [Compound 110, 4-((5S,5aS,6S,9R)-12-(((R)-3,3-Difluoro-1-azabicyclo[3.2.0]heptan-5-yl)methoxy)-1-fluoro-5-methyl-5a,6,7,8,9,10-hexahydro-5H-4-oxa-3,10a,11,13,14-pentaaza-6,9-methanonaphtho[1,8-ab]heptalen-2-yl)-5-ethynyl-6-fluoronaphthalen-2-amine], the IC50 came out at 0.587 µM in assay [1] and 0.00258 µM in assay [2].

With `Cc1c(F)c(N)c(F)c(-c2nc3c4c(nc(OC[C@@]56CCCN5C/C(=C\F)C6)nc4c2F)N2C[C@H]4CC[C@H](N4)[C@H]2[C@H](C)O3)c1C(F)(F)F` [Compound 229, 2,6-Difluoro-3-((5S,5aS,6S,9R)-1-fluoro-12-(((S,Z)-2-(fluoromethylene)tetrahydro-1H-pyrrolizin-7a(5H)-yl)methoxy)-5-methyl-5a,6,7,8,9,10-hexahydro-5H-4-oxa-3,10a,11,13,14-pentaaza-6,9-methanonaphtho[1,8-ab]heptalene-2-yl)-5-methyl-4-(trifluoromethyl)aniline], the IC50 in assay [1] is 0.639 µM; in assay [2], 0.00182 µM.

In the case of `Cc1c(F)c(N)cc(-c2nc3c4c(nc(OC[C@@]56CCCN5C[C@H](F)C6)nc4c2F)N2CCNC[C@H]2C(C)O3)c1C(F)(F)F` (single isomer, unassigned) [235 (isomer 2)], the IC50 in assay [1] worked out at 0.262 µM; in assay [2] it was 0.136 µM.

Regarding `Cc1c(F)c(N)cc(-c2nc3c4c(nc(OC[C@@H]5CCC6CC(F)(F)CCN65)nc4c2F)N2C[C@H]4CC[C@H](N4)[C@H]2[C@H](C)O3)c1C(F)(F)F` (single isomer, unassigned) [119 (isomer 2)], the IC50 came out at 1.7 µM in assay [1] and 0.00795 µM in assay [2].

Consider `Cc1c(F)c(N)cc(-c2nc3c4c(nc(OCC5CCC6CC(F)(F)CCN56)nc4c2F)N2CC4CCC(N4)C2C(C)O3)c1C(F)(F)F` (single isomer, unassigned) [119 (isomer 1)], for which the IC50 in assay [1] amounted to 3.15 µM; in assay [2], 0.0767 µM.

Regarding `Cc1c(F)c(N)cc(-c2nc3c4c(nc(OC[C@@H]5CC[C@@H]6CC(C(=O)N(C)C)CCN65)nc4c2F)N2C[C@H]4CC[C@H](N4)[C@H]2[C@H](C)O3)c1C(F)(F)F` (single isomer, unassigned) [133 (isomer 3)], the IC50 was 0.659 µM in assay [1] and 0.0363 µM in assay [2].

`Cc1c(F)ccc(-c2nc3c4c(nc(OC[C@@]56CCCN5C[C@H](F)C6)nc4c2F)N2C[C@H]4CC[C@H](N4)[C@H]2[C@H](C)O3)c1C(F)(F)F` [Compound 203, (5S,5aS,6S,9R)-1-fluoro-2-(4-fluoro-3-methyl-2-(trifluoromethyl)phenyl)-12-(((2R,7aS)-2-fluorotetrahydro-1H-pyrrolizin-7a(5H)-yl)methoxy)-5-methyl-5a,6,7,8,9,10-hexahydro-5H-4-oxa-3,10a,11,13,14-pentaaza-6,9-methanonaphtho[1,8-ab]heptalene]: the results for the IC50 in assay [1] and in assay [2] were 20 µM and 0.52 µM, respectively.

For the compound `Cc1nc(N)cc(-c2nc3c4c(nc(OCC5(CN6CCOC7(CC7)C6)CC5)nc4c2F)N2C[C@H]4CC[C@H](N4)[C@H]2[C@H](C)O3)c1C(F)(F)F` [Compound 212, 4-((5S,5aS,6S,9R)-12-((1-((4-Oxa-7-azaspiro[2.5]octan-7-yl)methyl)cyclopropyl)methoxy)-1-fluoro-5-methyl-5a,6,7,8,9,10-hexahydro-5H-4-oxa-3,10a,11,13,14-pentaaza[6,9]methanonaphtho[1,8-ab]heptalene-2-yl)-6-methyl-5-(trifluoromethyl)pyridin-2-amine], the figures for the IC50 in assay [1] and in assay [2] were 0.389 µM and 0.00164 µM, respectively.

Take `CO[C@H]1CN(CC2(COc3nc4c5c(nc(-c6cc(N)nc(C)c6C(F)(F)F)c(F)c5n3)O[C@@H](C)[C@@H]3[C@@H]5CC[C@H](CN43)N5)CC2)C[C@@H]1F` [Compound 291, 4-((5S,5aS,6S,9R)-1-fluoro-12-((1-(((3S,4S)-3-fluoro-4-methoxypyrrolidin-1-yl)methyl)cyclopropyl)methoxy)-5-methyl-5a,6,7,8,9,10-hexahydro-5H-4-oxa-3,10a,11,13,14-pentaaza-6,9-methanonaphtho[1,8-ab]heptalen-2-yl)-6-methyl-5-(trifluoromethyl)pyridin-2-amine]: the IC50 in assay [1] amounted to 12.2 µM; in assay [2] it was 0.00409 µM.

`Cc1c(F)c(N)cc(-c2nc3c4c(nc(OCC5(CN6CC(F)C6)CC5)nc4c2F)N2C[C@H]4CC[C@H](N4)[C@H]2[C@H](C)O3)c1C(F)(F)F` [Compound 173, 2-Fluoro-5-((5S,5aS,6S,9R)-1-fluoro-12-((1-((3-fluoroazetidin-1-yl)methyl)cyclopropyl)methoxy)-5-methyl-5a,6,7,8,9,10-hexahydro-5H-4-oxa-3,10a,11,13,14-pentaaza-6,9-methanonaphtho[1,8-ab]heptalene-2-yl)-3-methyl-4-(trifluoromethyl)aniline]: the IC50 in assay [1] came out at 0.917 µM; in assay [2] it was 0.00133 µM.

As to `Cc1c(F)c(N)cc(-c2nc3c4c(nc(OCC56CCCN5CC(F)C6)nc4c2F)N2CCNCC2C(C)O3)c1C(F)(F)F` (single isomer, unassigned) [235 (isomer 1)], the results for the IC50 in assay [1] and in assay [2] were 4.34 µM and 2.42 µM, respectively.

With `Cc1c(F)c(N)cc(-c2nc3c4c(nc(OC[C@H]5[C@H](C#N)CCN5C)nc4c2F)N2C[C@H]4CC[C@H](N4)[C@H]2[C@H](C)O3)c1C(F)(F)F` [Compound 161, (2R,3R)-2-((((5S,5aS,6S,9R)-2-(5-Amino-4° fluoro-3-methyl-2-(trifluoromethyl)°henyl)-1-fluoro-5-methyl-5a,6,7,8,9,10-hexahydro-5H-4-oxa-3,10a,11,13,14-pentaaza-6,9-methanonaphtho[1,8-ab]heptalen-12-yl)oxy)methyl)-1-methylpyrrolidine-3-carbonitrile], the IC50 in assay [1] worked out at 13 µM; in assay [2], 0.0689 µM.

`Cc1c(F)c(N)cc(-c2nc3c4c(nc(OCC5(CN6CCO[C@@H](CF)C6)CC5)nc4c2F)N2C[C@H]4CC[C@H](N4)[C@H]2[C@H](C)O3)c1C(F)(F)F` [Compound 172, 2-Fluoro-5-((5S,5aS,6S,9R)-1-fluoro-12-((1-(((R)-2-(fluoromethyl)morpholino)methyl)cyclopropyl)methoxy)-5-methyl-5a,6,7,8,9,10-hexahydro-5H-4-oxa-3,10a,11,13,14-pentaaza-6,9-methanonaphtho[1,8-ab]heptalen-2-yl)-3-methyl-4-(trifluoromethyl)aniline]: the IC50 in assay [1] is 0.864 µM; in assay [2], 0.00172 µM.

With `Cc1c(F)c(N)cc(-c2nc3c4c(nc(OCC56COC(CN5C)C6)nc4c2F)N2C[C@H]4CC[C@H](N4)[C@H]2[C@H](C)O3)c1C(F)(F)F` [Compound 132, 2-Fluoro-5-((5S,5aS,6S,9R)-1-fluoro-5-methyl-12-((5-methyl-2-oxa-5-azabicyclo[2.2.1]heptan-4-yl)methoxy)-5a,6,7,8,9,10-hexahydro-5H-4-oxa-3,10a,11,13,14-pentaaza-6,9-methanonaphtho[1,8-ab]heptalen-2-yl)-3-methyl-4-(trifluoromethyl)aniline], the figures for the IC50 in assay [1] and in assay [2] were 14.2 µM and 0.0704 µM, respectively.

In the case of `Cc1c(F)c(N)c(F)c(-c2nc3c4c(nc(OC[C@@]56CCCN5C[C@H](F)C6)nc4c2F)N2C[C@H]4CC[C@H](N4)[C@H]2[C@H](C)O3)c1I` [Compound 204, 2,6-Difluoro-3-((5S,5aS,6S,9R)-1-fluoro-12-(((2R,7aS)-2-fluorotetrahydro-1H-pyrrolizin-7a(5H)-yl)methoxy)-5-methyl-5a,6,7,8,9,10-hexahydro-5H-4-oxa-3,10a,11,13,14-pentaaza-6,9-methanonaphtho[1,8-ab]heptalen-2-yl)-4-iodo-5-methylaniline], the IC50 is 1.42 µM in assay [1] and 0.0189 µM in assay [2].

Turning to `Cc1c(F)c(N)cc(-c2nc3c4c(nc(OCC5CN(CC(F)F)C5)nc4c2F)N2C[C@H]4CC[C@H](N4)[C@H]2[C@H](C)O3)c1C(F)(F)F` [Compound 128, 5-((5S,5aS,6S,9R)-12-((1-(2,2-Difluoroethyl)azetidin-3-yl)methoxy)-1-fluoro-5-methyl-5a,6,7,8,9,10-hexahydro-5H-4-oxa-3,10a,11,13,14-pentaaza-6,9-methanonaphtho[1,8-ab]heptalen-2-yl)-2-fluoro-3-methyl-4-(trifluoromethyl)aniline], the IC50 in assay [1] came out at 5.06 µM; in assay [2] it was 0.0515 µM.

`Cc1nc(N)cc(-c2nc3c4c(nc(OCC5(CN6CCC(C(F)F)C6)CC5)nc4c2F)N2C[C@H]4CC[C@H](N4)[C@H]2[C@H](C)O3)c1C(F)(F)F` (stereo partly drawn) [Compound 276, 4-((5S,5aS,6S,9R)-12-((1-((3-(difluoromethyl)pyrrolidin-1-yl)methyl)cyclopropyl)methoxy)-1-fluoro-5-methyl-5a,6,7,8,9,10-hexahydro-5H-4-oxa-3,10a,11,13,14-pentaaza-6,9-methanonaphtho[1,8-ab]heptalen-2-yl)-6-methyl-5-(trifluoromethyl)pyridin-2-amine]: the results for the IC50 in assay [1] and in assay [2] were 1.62 µM and 0.00182 µM, respectively.
